Results: patent US8003660B2, “Modulators of muscarinic receptors” (Vertex Pharmaceuticals Incorporated, priority 2006, dated 2011)
Where two headings read alike, the source gives them in different places.

Assays:
Assay type in all cases: cell-based
M1 muscarinic receptor = target: T1, M1 muscarinic receptor (Homo sapiens, UniProt P11229); assay: Functional mobilization of intracellular calcium (FLIPR) in CHO cells expressing M1; conditions: for EC50: CHO cells expressing M1, FLIPR calcium; for Emax: CHO; for M1 Activity: CHO cells expressing M1, FLIPR calcium assay
T1 construct: expressed in transfected cells; host or cells: CHO (M1-CHO)
T1 sequence (P11229 1-460): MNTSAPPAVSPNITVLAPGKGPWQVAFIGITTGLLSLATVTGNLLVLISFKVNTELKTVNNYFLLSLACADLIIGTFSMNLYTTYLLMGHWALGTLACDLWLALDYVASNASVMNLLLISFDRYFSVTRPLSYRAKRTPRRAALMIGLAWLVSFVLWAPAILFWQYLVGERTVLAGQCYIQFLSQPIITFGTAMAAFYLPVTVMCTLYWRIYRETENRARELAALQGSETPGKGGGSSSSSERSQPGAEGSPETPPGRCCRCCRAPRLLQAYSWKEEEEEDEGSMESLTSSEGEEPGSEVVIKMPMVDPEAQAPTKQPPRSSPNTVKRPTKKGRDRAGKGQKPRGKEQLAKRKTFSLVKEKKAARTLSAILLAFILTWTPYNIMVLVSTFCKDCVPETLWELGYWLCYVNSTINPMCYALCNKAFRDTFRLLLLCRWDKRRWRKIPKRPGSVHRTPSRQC
Summary of the method: (§1)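 Calcium flux is read on FLIPR over 60 sec at 488/540 nm in muscarinic-receptor CHO lines. Antagonist mode adds carbachol at EC80 after 15 min compound preincubation or with simultaneous co-application. Agonist mode adds compound alone. Cells carry Fluo-3 or Calcium 3 dye in probenecid-containing pH 7.4 buffer, 0.5% DMSO final.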

M2 muscarinic receptor = target: T2, M2 muscarinic receptor (Homo sapiens, UniProt P08172); assay: Functional mobilization of intracellular calcium (FLIPR) in CHO cells expressing M2; conditions: for EC50: CHO cells expressing M2, FLIPR calcium; for Emax: CHO; for M2 Activity: CHO cells expressing M2, FLIPR calcium assay
T2 construct: expressed in transfected cells; host or cells: CHO (M2-CHO)
T2 sequence (P08172 1-466): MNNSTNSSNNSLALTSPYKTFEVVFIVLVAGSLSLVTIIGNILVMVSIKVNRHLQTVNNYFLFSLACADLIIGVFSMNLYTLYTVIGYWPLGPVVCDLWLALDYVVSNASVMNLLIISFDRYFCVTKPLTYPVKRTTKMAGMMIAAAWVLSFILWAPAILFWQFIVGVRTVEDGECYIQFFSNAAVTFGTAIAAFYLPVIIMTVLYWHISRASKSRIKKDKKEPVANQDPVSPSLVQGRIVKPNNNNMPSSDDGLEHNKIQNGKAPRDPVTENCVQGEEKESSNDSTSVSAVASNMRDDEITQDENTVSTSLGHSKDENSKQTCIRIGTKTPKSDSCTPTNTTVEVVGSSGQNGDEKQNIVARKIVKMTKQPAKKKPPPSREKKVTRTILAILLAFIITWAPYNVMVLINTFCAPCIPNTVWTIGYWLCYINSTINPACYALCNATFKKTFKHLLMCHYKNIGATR
Summary of the method: as §1

M3 muscarinic receptor = target: T3, M3 muscarinic receptor (Homo sapiens, UniProt P20309); assay: Functional mobilization of intracellular calcium (FLIPR) in CHO cells expressing M3; conditions: for EC50: CHO cells expressing M3, FLIPR calcium; for Emax: CHO; for M3 Activity: CHO cells expressing M3, FLIPR calcium assay
T3 construct: expressed in transfected cells; host or cells: CHO (M3-CHO)
Summary of the method: as §1

M4 muscarinic receptor = target: T4, M4 muscarinic receptor (Homo sapiens, UniProt P08173); assay: Functional mobilization of intracellular calcium (FLIPR) in CHO cells expressing M4; conditions: for EC50: CHO cells expressing M4, FLIPR calcium; for Emax: CHO; for M4 Activity: CHO cells expressing M4, FLIPR calcium assay
T4 construct: expressed in transfected cells; host or cells: CHO (M4-CHO)
T4 sequence (P08173 1-479): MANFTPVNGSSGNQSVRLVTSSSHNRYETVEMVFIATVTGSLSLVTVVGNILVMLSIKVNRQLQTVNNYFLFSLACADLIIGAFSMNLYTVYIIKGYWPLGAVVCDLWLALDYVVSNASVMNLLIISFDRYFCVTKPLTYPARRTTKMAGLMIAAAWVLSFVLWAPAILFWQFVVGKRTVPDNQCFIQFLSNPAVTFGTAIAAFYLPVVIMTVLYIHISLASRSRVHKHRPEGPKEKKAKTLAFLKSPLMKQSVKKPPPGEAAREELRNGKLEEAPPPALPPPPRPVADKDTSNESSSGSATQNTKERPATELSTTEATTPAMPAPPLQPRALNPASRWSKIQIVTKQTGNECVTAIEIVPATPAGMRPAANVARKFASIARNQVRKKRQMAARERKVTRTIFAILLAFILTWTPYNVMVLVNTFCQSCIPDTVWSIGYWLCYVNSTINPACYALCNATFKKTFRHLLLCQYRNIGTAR
Summary of the method: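 Recombinant CHO cells loaded with Fluo-3 AM or Calcium 3 dye in pH 7.4 buffer containing 1 mM probenecid, with 0.5% final DMSO. For agonism, compound is added directly. For inhibition, it is preincubated 15 min, or co-applied, before carbachol at EC80. FLIPR fluorescence (ex 488, em 540 nm) is recorded for 60 s.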

[1] = 100% = maximum response obtained with the Carbachol control, read-out: M1 Efficacy
[2] = 100% = maximum response obtained with the Carbachol control, read-out: M2 Efficacy
[3] = 100% = maximum response obtained with the Carbachol control, read-out: M3 Efficacy
[4] = 100% = maximum response obtained with the Carbachol control, read-out: M4 Efficacy
[5] = 100% efficacy = maximum response obtained with the Carbachol control

T3 sequence (P20309 whole entry): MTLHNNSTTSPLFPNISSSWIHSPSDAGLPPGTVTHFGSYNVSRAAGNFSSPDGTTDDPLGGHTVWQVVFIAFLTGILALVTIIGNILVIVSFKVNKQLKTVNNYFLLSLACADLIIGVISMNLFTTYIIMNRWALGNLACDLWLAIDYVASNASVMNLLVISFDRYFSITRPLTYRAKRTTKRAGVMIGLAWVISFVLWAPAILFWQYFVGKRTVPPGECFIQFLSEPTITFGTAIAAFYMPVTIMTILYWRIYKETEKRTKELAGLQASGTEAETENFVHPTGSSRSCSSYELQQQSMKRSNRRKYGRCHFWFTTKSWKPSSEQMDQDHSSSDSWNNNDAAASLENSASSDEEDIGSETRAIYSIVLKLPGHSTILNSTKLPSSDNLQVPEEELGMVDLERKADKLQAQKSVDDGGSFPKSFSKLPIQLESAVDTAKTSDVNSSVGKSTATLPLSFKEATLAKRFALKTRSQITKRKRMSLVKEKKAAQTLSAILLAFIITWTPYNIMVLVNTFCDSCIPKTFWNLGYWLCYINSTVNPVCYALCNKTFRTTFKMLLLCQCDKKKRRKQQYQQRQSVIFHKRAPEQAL

| SMILES | EC50 (M1 muscarinic receptor) [µM] | Emax (M1 muscarinic receptor; [1]) [%] | EC50 (M2 muscarinic receptor) [µM] | Emax (M2 muscarinic receptor; [2]) [%] | EC50 (M3 muscarinic receptor) [µM] | Emax (M3 muscarinic receptor; [3]) [%] | EC50 (M4 muscarinic receptor) [µM] | Emax (M4 muscarinic receptor; [4]) [%] | M1 Activity (M1 muscarinic receptor) | Emax (M1 muscarinic receptor; [5]) [%] | M2 Activity (M2 muscarinic receptor) | Emax (M2 muscarinic receptor; [5]) [%] | M3 Activity (M3 muscarinic receptor) | Emax (M3 muscarinic receptor; [5]) [%] | M4 Activity (M4 muscarinic receptor) | Emax (M4 muscarinic receptor; [5]) [%] |
| --- | --- | --- | --- | --- | --- | --- | --- | --- | --- | --- | --- | --- | --- | --- | --- | --- |
| CC(=O)N[C@H]1CCC2(CCN(CCCCC(C)(C)C#N)CC2)c2ccccc21 [compound 179] | < 2 | 25 to 100 | > 5 | < 25 | > 5 | < 25 | > 5 | < 25 |  |  |  |  |  |  |  |  |
| Cn1cnc(C(=O)N[C@@H]2CCC3(CCN(CCC(C)(C)C)CC3)c3cc(F)ccc32)c1 [compound 180] | < 2 | 25 to 100 | < 2 | 25 to 100 | > 5 | < 25 | < 2 | 25 to 100 |  |  |  |  |  |  |  |  |
| CCN(C(=O)COC)[C@H]1CCC2(CCN(CCC(C)(C)C)CC2)c2ccccc21 [compound 181] | 2 to 5 | 25 to 100 | > 5 | < 25 | > 5 | < 25 | < 2 | 25 to 100 |  |  |  |  |  |  |  |  |
| CC(C)C[C@@H](C(=O)N[C@@H]1CCC2(CCN(CCC(C)(C)C)CC2)c2ccccc21)N1CCCC1=O [compound 182] | 2 to 5 | 25 to 100 | > 5 | < 25 | > 5 | < 25 | < 2 | 25 to 100 |  |  |  |  |  |  |  |  |
| CCN(C(=O)CC(F)(F)F)[C@H]1CCC2(CCN(CCC(C)(C)C)CC2)c2ccccc21 [compound 183] | 2 to 5 | 25 to 100 | > 5 | < 25 | > 5 | < 25 | < 2 | 25 to 100 |  |  |  |  |  |  |  |  |
| CC(=O)N(C)[C@H]1CCC2(CCN(CCC(C)C)CC2)c2ccccc21 [compound 184] | < 2 | 25 to 100 | > 5 | < 25 | > 5 | < 25 | < 2 | 25 to 100 |  |  |  |  |  |  |  |  |
| CC(=O)N[C@H]1CCC2(CCN(CCCC(F)(F)F)CC2)c2ccccc21 [compound 185] |  |  |  |  |  |  |  |  | ++ (activity was measured to be from 2.0 μM to 5.0 μM) | 25 to 100 | + (activity was measured to be greater than 5.0 μM) | < 25 | + (activity was measured to be greater than 5.0 μM) | 25 to 100 | ++ (activity was measured to be from 2.0 μM to 5.0 μM) | 25 to 100 |
| CC(=O)N1CCCCC1C(=O)N[C@@H]1CCC2(CCN(CCC(C)(C)C)CC2)c2ccccc21 (stereo partly shown) [compound 186] |  |  |  |  |  |  |  |  | ++ (activity was measured to be from 2.0 μM to 5.0 μM) | 25 to 100 | + (activity was measured to be greater than 5.0 μM) | < 25 | + (activity was measured to be greater than 5.0 μM) | < 25 | +++ (activity was measured to be less than 2.0 μM) | 25 to 100 |
